Source: patent EP1931657B1, “NOVEL HIGH AFFINITY QUINOLINE-BASED KINASE LIGANDS” (Merck Sharp & Dohme Corp., priority 2005, dated 2007)

Molecular target: CDK-2 (Homo sapiens, UniProt P24941)
Assay: CDK-2 inhibition, fluorescence polarization displacement assay
Protocol: Binding assays were performed in a 384 well Costar NBS coated plate. […] The concentration of BMS-Alexa Fluor647 was 50 nM. Serial dilutions of compounds were added to 12 wells. The final buffer concentration was 10 mM Hepes, pH 7.5, 150 mM NaCl, and 1 mM DTT. Samples were incubated at room temperature for 15 minutes and then read in an Analyst HT instrument using an excitation and emission wavelength of 580 and 680 nm, respectively.

| SMILES | IC50 [µM] |
| --- | --- |
| COC(=O)[C@H](Cc1ccc(O)cc1)NC(=O)c1cc(C(=O)O)c2cc(-c3ccc(OC)c(F)c3)ccc2n1 [Compound 113] | 1 to 40 |
| N#CC[C@H](Cc1ccc(O)cc1)NC(=O)c1cc(C(=O)O)c2cc(CCc3ccccc3)ccc2n1 [Compound 116] | 1 to 40 |
| COC[C@H](Cc1ccc(O)cc1)NC(=O)c1cc(C(=O)O)c2cc(C#Cc3ccccn3)ccc2n1 [Compound 125] | 1 to 40 |
| COC[C@H](Cc1ccc(O)cc1)NC(=O)c1cc(C(=O)O)c2cc(COc3ccc(C(F)(F)F)cc3)ccc2n1 [Compound 129] | 1 to 40 |
| COC(=O)[C@H](Cc1ccc(O)cc1)NC(=O)c1cc(C(=O)O)c2cc(-c3cccnc3)ccc2n1 [Compound 130] | 1 to 40 |
| COC(=O)[C@H](Cc1ccc(O)cc1)NC(=O)c1cc(C(=O)O)c2cc(-c3ccc4ccccc4c3)ccc2n1 [Compound 133] | 1 to 40 |
| COC(=O)[C@H](Cc1ccc(O)cc1)NC(=O)c1cc(C(=O)O)c2cc(-c3ccc(F)cc3)ccc2n1 [Compound 135] | 1 to 40 |
| COC[C@H](Cc1ccc(O)cc1)NC(=O)c1cc(NS(=O)(=O)C(C)(C)C)c2cc(-c3cccc(N4CCOCC4)c3)ccc2n1 [Compound 136] | 1 to 40 |
| COC[C@H](Cc1ccc(O)cc1)NC(=O)c1cc(C(=O)O)c2cc(C#Cc3cccnc3)ccc2n1 [Compound 137] | 1 to 40 |
| COC[C@H](Cc1ccc(O)cc1)NC(=O)c1cc(NS(=O)(=O)C(C)(C)C)c2cc(-c3cccc(COc4cccnc4)c3)ccc2n1 [Compound 139] | 1 to 40 |
| COC[C@H](Cc1ccc(O)cc1)NC(=O)c1cc(C(=O)O)c2cc(-c3cccc(COc4cccnc4)c3)ccc2n1 [Compound 141] | 1 to 40 |
| COC(=O)[C@H](Cc1ccc(O)cc1)NC(=O)c1cc(C(=O)O)c2cc(-c3ccc(N)cc3)ccc2n1 [Compound 145] | 1 to 40 |
| COC[C@H](Cc1ccc(O)cc1)NC(=O)c1cc(C(=O)O)c2cc(COc3ccc(Cl)c(F)c3)ccc2n1 [Compound 146] | 1 to 40 |
| COC[C@H](Cc1ccc(O)cc1)NC(=O)c1cc(C(=O)O)c2cc(C#Cc3ccccc3C(F)(F)F)ccc2n1 [Compound 148] | 1 to 40 |
| COC(=O)[C@H](Cc1ccc(O)cc1)NC(=O)c1cc(C(=O)O)c2cc(-c3ccccc3OC)ccc2n1 [Compound 151] | 1 to 40 |
| COC[C@H](Cc1ccc(O)cc1)NC(=O)c1cc(C(=O)O)c2cc(C#CCCC#N)ccc2n1 [Compound 152] | 1 to 40 |
| COC(=O)C(Cc1ccc(O)cc1)NC(=O)c1cc(C(=O)NC(C)(C)C(=O)O)c2cc(-c3cccs3)ccc2n1 (stereo not shown) [Compound 154] | > 40 |
| COC(=O)[C@H](Cc1c[nH]cn1)NC(=O)c1cc(C(=O)O)c2cc(-c3cccs3)ccc2n1 [Compound 156] | > 40 |
| COC(=O)[C@H](Cc1ccc(O)cc1)NC(=O)c1cc(C(=O)O)c2cc(-c3ccc(S(C)(=O)=O)cc3)ccc2n1 [Compound 157] | > 40 |
| COC(=O)[C@H](Cc1ccc(O)cc1)NC(=O)c1cc(C(=O)O)c2cc(-c3cccc(NC(C)=O)c3)ccc2n1 [Compound 158] | > 40 |
| COC(=O)[C@H](Cc1ccc(O)cc1)NC(=O)c1cc(C(=O)O)c2cc(Cc3ccccc3)ccc2n1 [Compound 159] | > 40 |
| COC(=O)[C@H](Cc1cccnc1)NC(=O)c1cc(C(=O)O)c2cc(-c3cccc(C(F)(F)F)c3)ccc2n1 [Compound 164] | > 40 |
| COC(=O)[C@H](Cc1ccc(OC(C)(C)C)cc1)NC(=O)c1cc(C(=O)O)c2cc(-c3cccc(C(F)(F)F)c3)ccc2n1 [Compound 166] | > 40 |
| COC(=O)[C@H](Cc1ccc(OC)cc1)NC(=O)c1cc(S(C)(=O)=O)c2cc(-c3cccc(C(F)(F)F)c3)ccc2n1 [Compound 171] | > 40 |
| COC[C@H](Cc1ccc(O)cc1)NC(=O)c1cc(S(C)(=O)=O)c2cc(-c3cccc(C(F)(F)F)c3)ccc2n1 [Compound 172] | > 40 |

| SMILES | IC50 [µM] |
| --- | --- |
| COC[C@H](Cc1ccc(O)cc1)NC(=O)c1cc(C(=O)OCCO)c2cc(-c3cccc(C(F)(F)F)c3)ccc2n1 [Compound 173] | > 40 |
| COC[C@H](Cc1ccc(O)cc1)NC(=O)c1cc(C(=O)OCC(O)CO)c2cc(-c3cccc(C(F)(F)F)c3)ccc2n1 (stereo partly shown) [Compound 174] | > 40 |
| CCCCOC(=O)c1cc(C(=O)N[C@H](COC)Cc2ccc(O)cc2)nc2ccc(-c3cccc(C(F)(F)F)c3)cc12 [Compound 177] | > 40 |
| COC[C@H](Cc1ccc(O)cc1)NC(=O)c1cc(C(=O)O)c2cc(COc3ccccc3)ccc2n1 [Compound 180] | > 40 |
| NC[C@H](Cc1ccc(O)cc1)NC(=O)c1cc(C(=O)O)c2cc(CCc3ccccc3)ccc2n1 [Compound 181] | > 40 |
| NCC[C@H](Cc1ccc(O)cc1)NC(=O)c1cc(C(=O)O)c2cc(CCc3ccccc3)ccc2n1 [Compound 182] | > 40 |
| CCN(CC)Cc1cccc(-c2ccc3nc(C(=O)N[C@H](COC)Cc4ccc(O)cc4)cc(C(=O)O)c3c2)c1 [Compound 183] | > 40 |
| COC[C@H](Cc1ccc(O)cc1)NC(=O)c1cc(C(=O)O)c2cc(C#CCN(C)C)ccc2n1 [Compound 185] | > 40 |
| COC[C@H](Cc1ccc(O)cc1)NC(=O)c1cc(C(=O)O)c2cc(CCc3cccnc3)ccc2n1 [Compound 187] | > 40 |
| COC[C@H](Cc1ccc(O)cc1)NC(=O)c1cc(C(=O)O)c2cc(/C=C/c3cccnc3)ccc2n1 [Compound 188] | > 40 |
| COC[C@H](Cc1ccc(O)cc1)NC(=O)c1cc(C(=O)O)c2cc(-c3cccc(CN(C)C)c3)ccc2n1 [Compound 190] | > 40 |
| COC[C@H](Cc1ccc(O)cc1)NC(=O)c1cc(C(=O)O)c2cc(-c3cccc(CN(C)CCO)c3)ccc2n1 [Compound 191] | > 40 |
| COC[C@H](Cc1ccc(O)cc1)NC(=O)c1cc(C(=O)O)c2cc(-c3cccc(CNC(CO)CO)c3)ccc2n1 [Compound 197] | > 40 |
| COC[C@H](Cc1ccc(O)cc1)NC(=O)c1cc(C(=O)O)c2cc(COc3ccc(OC)cc3)ccc2n1 [Compound 200] | > 40 |
| COC[C@H](Cc1ccc(O)cc1)NC(=O)c1cc(C(=O)O)c2cc(COc3ccccc3OC)ccc2n1 [Compound 201] | > 40 |
| COC[C@H](Cc1ccc(O)cc1)NC(=O)c1cc(C(=O)O)c2cc(COc3ccc(O)cc3)ccc2n1 [Compound 202] | > 40 |
| COC[C@H](Cc1ccc(O)cc1)NC(=O)c1cc(C(=O)O)c2cc(C#CCCCCN)ccc2n1 [Compound 203] | > 40 |
| COC[C@H](Cc1ccc(O)cc1)NC(=O)c1cc(C(=O)O)c2cc(C#Cc3ccncc3)ccc2n1 [Compound 204] | > 40 |
| COC[C@H](Cc1ccc(O)cc1)NC(=O)c1cc(C(=O)O)c2cc(C#CCN3CCS(=O)(=O)CC3)ccc2n1 [Compound 205] | > 40 |
| CCOC(=O)C#Cc1ccc2nc(C(=O)N[C@H](COC)Cc3ccc(O)cc3)cc(C(=O)O)c2c1 [Compound 206] | > 40 |
| COC[C@H](Cc1ccc(O)cc1)NC(=O)c1cc(C(=O)O)c2cc(COc3ccccn3)ccc2n1 [Compound 207] | > 40 |
| COC[C@H](Cc1ccc(O)cc1)NC(=O)c1cc(C(=O)O)c2cc(CSc3ccncc3)ccc2n1 [Compound 208] | > 40 |
| COC[C@H](Cc1ccc(O)cc1)NC(=O)c1cc(C(=O)O)c2cc(CSc3ccccn3)ccc2n1 [Compound 210] | > 40 |
| COC[C@H](Cc1ccc(O)cc1)NC(=O)c1cc(C(=O)O)c2cc(CN(C)C)ccc2n1 [Compound 211] | > 40 |
